Earlier results as cited in US20210137911A1, “NOVEL CHRONOTHERAPY BASED ON CIRCADIAN RHYTHMS” (THE TRUSTEES OF THE UNIVERSITY OF PENNSYLVANIA, priority 2014, published 2021).
Positions of bridges follow the written chain, without caps; N, C: chain ends. Non-standard residues stand in square brackets, D forms with d. Residues, ends and D or L forms follow the SMILES beside them.

conditions: half-life of therapeutic compound as listed in Table 1; cited from earlier work

COc1cc(NC(C)CCCN)c2ncccc2c1 (stereo not drawn) [Primaquine] and CCC1(c2ccccc2)C(=O)NCNC1=O [Primidone] are within 1.5-fold of each other in “½ Life” value: 3.7 h for the first, 3 h for the second.

First: CCN(CC)CCOC(=O)c1ccc(N)cc1 [Procaine]
Second: NC(=O)CCC/N=C(\c1ccc(Cl)cc1)c1cc(F)ccc1O [Progabide]
The “½ Life” value of the first is 31-fold lower: 0.1283 h for the first, 4 h for the second.

same assay, conditions: in vivo; cited from earlier work

Compared with CC[C@H](C)[C@H](NC(=O)[C@@H]1CCCN1C(=O)CNC(=O)[C@H](Cc1ccccc1)NC(=O)[C@H](CC(N)=O)NC(=O)[C@H](CC(N)=O)NC(=O)[C@H](CO)NC(=O)[C@H](CO)NC(=O)[C@H](Cc1c[nH]cn1)NC(=O)[C@@H](NC(=O)[C@H](CC(C)C)NC(=O)[C@H](Cc1ccccc1)NC(=O)[C@H](CC(N)=O)NC(=O)[C@H](C)NC(=O)[C@H](CC(C)C)NC(=O)[C@H](CCCNC(=N)N)NC(=O)[C@H](CCC(N)=O)NC(=O)[C@@H](NC(=O)[C@H](C)NC(=O)[C@@H]1CSSC[C@H](NC(=O)[C@@H](N)CCCCN)C(=O)N[C@@H](CC(N)=O)C(=O)N[C@@H]([C@@H](C)O)C(=O)N[C@@H](C)C(=O)N[C@@H]([C@@H](C)O)C(=O)N1)[C@@H](C)O)C(C)C)C(=O)N[C@@H](CC(C)C)C(=O)N1CCC[C@H]1C(=O)N1CCC[C@H]1C(=O)N[C@H](C(=O)N[C@@H](CC(N)=O)C(=O)N[C@H](C(=O)NCC(=O)N[C@@H](CO)C(=O)N[C@@H](CC(N)=O)C(=O)N[C@H](C(=O)N[C@@H](Cc1ccc(O)cc1)C(N)=O)[C@@H](C)O)C(C)C)[C@@H](C)O [Pramlintide], NC(=O)CC[C@@H]1NC(=O)[C@H](Cc2ccccc2)NC(=O)[C@H](Cc2ccc(O)cc2)NC(=O)[C@@H](N)CSSC[C@@H](C(=O)N2CCC[C@H]2C(=O)N[C@@H](CCCN=C(N)N)C(=O)NCC(N)=O)NC(=O)[C@H](CC(N)=O)NC1=O [Vasopressin] is 4.8-fold lower in “½ Life” value: 0.8 h for the first, 0.166 h for the second.

C[C@]12C=CC(=O)C=C1CC[C@@H]1[C@@H]2[C@@H](O)C[C@@]2(C)[C@H]1CC[C@]2(O)C(=O)CO [Prednisolone] and C[C@]12C=CC(=O)C=C1CC[C@H]1[C@@H]3C[C@@H](O)[C@](O)(C(=O)CO)[C@@]3(C)C[C@H](O)[C@@]12F [Triamcinolone] are within 1.5-fold of each other in “½ Life” value: 2 h for the first, 1.466 h for the second.

Compared with CC(C)c1cccc(C(C)C)c1O [Propofol], CC[C@@H](c1cccc(O)c1)[C@@H](C)CN(C)C [Tapentadol] is 4-fold higher in “½ Life” value: 1 h for the first, 4 h for the second.

Going from CCCc1cc(=O)[nH]c(=S)[nH]1 [Propylthiouracil] to CCCC(C)C1(CC)C(=O)NC(=S)NC1=O (stereo not drawn) [Thiopental], the “½ Life” value rises from 2 h to 3 h (1.5-fold).

Compared with CN(C)C(=O)Oc1ccc[n+](C)c1 [Pyridostigmine], CCN(C)C(=O)Oc1cccc([C@H](C)N(C)C)c1 [Rivastigmine] is 2-fold lower in “½ Life” value: 3 h for the first, 1.5 h for the second.

CCOC(=O)[C@H](CCc1ccccc1)N[C@@H](C)C(=O)N1Cc2ccccc2C[C@H]1C(=O)O [Quinapril] and CCOC(=O)[C@H](CCc1ccccc1)N[C@@H](C)C(=O)N1[C@H](C(=O)O)C[C@@H]2CCC[C@@H]21 [Ramipril, reference compound] are the same in “½ Life” value: 2 h for the first, 2 h for the second.

First: COCCCOc1ccnc(C[S+]([O-])c2nc3ccccc3[nH]2)c1C (stereo not drawn) [Rabeprazole]
Second: CCOc1ccccc1OCCN[C@H](C)Cc1ccc(OC)c(S(N)(=O)=O)c1 [Tamsulosin]
The “½ Life” value of the first is 5-fold lower: 1 h for the first, 5 h for the second.

Compared with CCC(=O)NCC[C@@H]1CCc2ccc3c(c21)CCO3 [Ramelteon], CCCN(CCc1cccs1)[C@H]1CCc2c(O)cccc2C1 [Rotigotine] is 5-fold higher in “½ Life” value: 1 h for the first, 5 h for the second.

Going from C#CCN[C@@H]1CCc2ccccc21 [Rasagiline] to C#CCN(C)[C@H](C)Cc1ccccc1 [Selegiline], the “½ Life” value falls from 3 h to 1.2 h (2.5-fold).

Compared with CNC(=O)c1cnn(-c2nc(N)c3ncn([C@@H]4O[C@H](CO)[C@@H](O)[C@H]4O)c3n2)c1 [Regadenoson], Cc1cn([C@H]2C[C@H](N=[N+]=[N-])[C@@H](CO)O2)c(=O)[nH]c1=O [Zidovudine] is 33-fold higher in “½ Life” value: 0.033 h for the first, 1.1 h for the second.

CCOc1cc(CC(=O)N[C@@H](CC(C)C)c2ccccc2N2CCCCC2)ccc1C(=O)O [Repaglinide] and O=C(Oc1ccccc1C(=O)O)c1ccccc1O [Salsalate] are the same in “½ Life” value: 1 h for the first, 1 h for the second.

O=P(O)(O)C(O)(Cc1cccnc1)P(=O)(O)O [Risedronate] and O=C(CCCCCCC(=O)Nc1ccccc1)NO [Vorinostat] are within 1.5-fold of each other in “½ Life” value: 1.5 h for the first, 2 h for the second.

Going from CC(NCCc1ccc(O)cc1)C(O)c1ccc(O)cc1 (stereo not drawn) [Ritodrine] to OCc1cc(C(O)CNCCCCCCOCCCCc2ccccc2)ccc1O (stereo not drawn) [Salmeterol], the “½ Life” value rises from 1.7 h to 5.5 h (3.2-fold).

CN(C)CCc1c[nH]c2ccc(Cn3cncn3)cc12 [Rizatriptan] and CNS(=O)(=O)Cc1ccc2[nH]cc(CCN(C)C)c2c1 [Sumatriptan] are within 1.5-fold of each other in “½ Life” value: 2 h for the first, 2.5 h for the second.

C=CC[N+]1([C@H]2C[C@H]3[C@@H]4CC[C@H]5C[C@H](O)[C@@H](N6CCOCC6)C[C@]5(C)[C@H]4CC[C@]3(C)[C@H]2OC(C)=O)CCCC1 [Rocuronium] and CC(=O)O[C@H]1C[C@@H]2CC[C@@H]3[C@H](CC[C@@]4(C)[C@H]3C[C@H]([N+]3(C)CCCCC3)[C@@H]4OC(C)=O)[C@@]2(C)C[C@@H]1N1CCCCC1 [Vecuronium] are within 1.5-fold of each other in “½ Life” value: 1 h for the first, 0.85 h for the second.

First: CN(CCOc1ccc(CC2SC(=O)NC2=O)cc1)c1ccccn1 (stereo not drawn) [Rosiglitazone]
Second: CCCCS(=O)(=O)N[C@@H](Cc1ccc(OCCCCC2CCNCC2)cc1)C(=O)O [Tirofiban]
The “½ Life” value of the first is 1.5-fold higher: 3 h for the first, 2 h for the second.

First: CCCCP(=O)(O)CCCN [SGS742]
Second: CCCCC[C@H](O)CC[C@@H]1[C@H]2Cc3cccc(OCC(=O)O)c3C[C@H]2C[C@H]1O [Treprostinil]
The “½ Life” value of the first is 2-fold higher: 4 h for the first, 2 h for the second.

Compared with CC(C)CC(N(C)C)C1(c2ccc(Cl)cc2)CCC1 (stereo not drawn) [Sibutramine], Cc1ccc(-c2nc3ccc(C)cn3c2CC(=O)N(C)C)cc1 [Zolpidem] is 2.4-fold higher in “½ Life” value: 1.1 h for the first, 2.6 h for the second.

CC(=O)S[C@@H]1CC2=CC(=O)CC[C@]2(C)[C@H]2CC[C@@]3(C)[C@@H](CC[C@@]34CCC(=O)O4)[C@H]12 [Spironolactone] and C[C@]12CC[C@H]3[C@@H](CCC4=CC(=O)CC[C@@]43C)[C@@H]1CC[C@@H]2O [Testosterone] are the same in “½ Life” value: 0.166 h for the first, 0.166 h for the second.

First: CCC1=C(C)c2cc3[n-]c(cc4[n-]c(cc5nc(cc1n2)C(C)=C5CC)c(C)c4CCC(=O)O)c(CCC(=O)O)c3C.[Cl-].[Cl-].[Sn+4] [Stannsoporfin]
Second: CC[C@@]1(O)C(=O)OCc2c1cc1n(c2=O)Cc2cc3c(CN(C)C)c(O)ccc3nc2-1 [Topotecan]
The “½ Life” value of the first is 1.9-fold higher: 3.8 h for the first, 2 h for the second.

Compared with CN(N=O)C(=O)N[C@@H](C=O)[C@@H](O)[C@H](O)[C@H](O)CO [Streptozocin], CC(=O)N[C@H]1[C@H]([C@H](O)[C@H](O)CO)OC(C(=O)O)=C[C@@H]1N=C(N)N [Zanamivir] is 30-fold higher in “½ Life” value: 0.0833 h for the first, 2.5 h for the second.

First: O=C1C(CC[S+]([O-])c2ccccc2)C(=O)N(c2ccccc2)N1c1ccccc1 (stereo not drawn) [Sulfinpyrazone]
Second: CC(C(=O)O)c1ccc(C(=O)c2ccccc2)s1 (stereo not drawn) [Tiaprofenic acid]
The “½ Life” value of the first is 2.7-fold higher: 4 h for the first, 1.5 h for the second.

First: Nc1c2c(nc3ccccc13)CCCC2 [Tacrine]
Second: Nc1nc(N)c2nc(-c3ccccc3)c(N)nc2n1 [Triamterene]
The “½ Life” value of the first is 2.1-fold lower: 2 h for the first, 4.25 h for the second.

Going from CC(=O)N1N=C(c2ccc(N)cc2)c2cc3c(cc2C[C@H]1C)OCO3 [Talampanel] to COc1cc([C@@H]2c3cc4c(cc3[C@@H](O[C@@H]3O[C@@H]5CO[C@@H](c6cccs6)O[C@H]5[C@H](O)[C@H]3O)[C@H]3COC(=O)[C@H]23)OCO4)cc(OC)c1O [Teniposide], the “½ Life” value rises from 3 h to 5 h (1.7-fold).

Compared with CC(C)(C)NCC(O)c1cc(O)cc(O)c1 (stereo not drawn) [Terbutaline], CC(C)(C)NC[C@H](O)COc1nsnc1N1CCOCC1 [Timolol] is 2.2-fold lower in “½ Life” value: 5.5 h for the first, 2.5 h for the second.

O=C1CCC(N2C(=O)c3ccccc3C2=O)C(=O)N1 (stereo not drawn) [Thalidomide] and CN1CCN(C(=O)OC2c3nccnc3C(=O)N2c2ccc(Cl)cn2)CC1 (stereo not drawn) [Zopiclone] are the same in “½ Life” value: 5 h for the first, 5 h for the second.

Clc1ccc2nsnc2c1NC1=NCCN1 [Tizanidine] and CN(C)CCc1c[nH]c2ccc(C[C@H]3COC(=O)N3)cc12 [Zolmitriptan] are within 1.5-fold of each other in “½ Life” value: 2.5 h for the first, 3 h for the second.

Compared with Cc1ccc(C(=O)c2ccc(CC(=O)O)n2C)cc1 [Tolmetin], O=c1n(CCCN2CCN(c3cccc(Cl)c3)CC2)nc2ccccn12 [Trazodone] is 2-fold lower in “½ Life” value: 2 h for the first, 1 h for the second.

First: CC(C)OC(=O)CCC/C=C\C[C@@H]1[C@@H](/C=C/[C@@H](O)COc2cccc(C(F)(F)F)c2)[C@H](O)C[C@@H]1O [Travoprost]
Second: CC[C@]1(O)C[C@H]2CN(CCc3c([nH]c4ccccc34)[C@@](C(=O)OC)(c3cc4c(cc3OC)N(C=O)[C@H]3[C@@](O)(C(=O)OC)[C@H](OC(C)=O)[C@]5(CC)C=CCN6CC[C@]43[C@@H]65)C2)C1 [Vincristine]
The “½ Life” value of the first is 6.7-fold lower: 0.75 h for the first, 5 h for the second.

Going from CC1=C(/C=C/C(C)=C/C=C/C(C)=C/C(=O)O)C(C)(C)CCC1 [Tretinoin] to N#C[C@@H]1CCCN1C(=O)CNC12CC3CC(CC(O)(C3)C1)C2 [Vildagliptin], the “½ Life” value rises from 0.5 h to 1.5 h (3-fold).

Compared with OC(CCN1CCCCC1)(c1ccccc1)C1CCCCC1 (stereo not drawn) [Trihexyphenidyl], COc1cc2c3cc1Oc1cc(ccc1O)C[C@@H]1c4c(cc(OC)c(O)c4Oc4ccc(cc4)C[C@@H]3N(C)CC2)CC[N+]1(C)C [Tubocurarine] is 3.3-fold lower in “½ Life” value: 3.3 h for the first, 1 h for the second.

For CC(C)[C@@H]1NC(=O)[C@H](CCCCN)NC(=O)[C@@H](Cc2c[nH]c3ccccc23)NC(=O)[C@H](Cc2ccc(O)cc2)NC(=O)[C@@H](NC(=O)[C@H](N)Cc2ccccc2)CSSC[C@@H](C(=O)N[C@@H](Cc2c[nH]c3ccccc23)C(N)=O)NC1=O [Vapreotide] (H-[dF]CY[dW]KVCW-NH2; disulfide 2-7), the “½ Life” value is given as 0.5 h.

same assay, conditions: see Table 1; cited from earlier work

For CCOC(=O)[C@H](CCc1ccccc1)N[C@@H](C)C(=O)N1[C@H](C(=O)O)C[C@@H]2CCC[C@@H]21 [Ramipril, reference compound], the minimum reported half-life is listed as 2 h.

In the case of CCC(C)(C)C(=O)O[C@H]1C[C@@H](C)C=C2C=C[C@H](C)[C@H](CC[C@@H]3C[C@@H](O)CC(=O)O3)[C@H]21 [Simvastatin, reference compound], the half-life is given as “less than three”.
